Reference: patent US20090054469A1, “QUINAZOLINONE DERIVATIVES AND THEIR USE AS B-RAF INHIBITORS” (ASTRAZENECA AB, priority 2005, published 2009)

Biological target: T1, human recombinant, purified wild type His-B-Raf protein kinase (Homo sapiens, UniProt P15056)
T1 construct: His
Experiment: B-Raf In Vitro ELISA Assay
Format: biochemical
Conditions: 2.5 nM B-Raf, 0.15 μM MEK1, 10 μM ATP; 1 hour preincubation at 25° C.; phosphorylation of MEK1
Protocol: B-Raf In Vitro ELISA Assay
Activity of human recombinant, purified wild type His-B-Raf protein kinase was determined in vitro using an enzyme-linked immunosorbent assay (ELISA) assay format, which measures phosphorylation of the B-Raf substrate, human recombinant, purified His-derived (detagged) MEK1. The reaction utilized 2.5 nM B-Raf, 0.15 μM MEK1 and 10 μM adenosine triphosphate (ATP) in 40 mM N-(2-hydroxyethyl)piperazine-N′-(2-ethanesulfonic acid hemisodium salt (HEPES), 5 mM 1,4-dithio-DL-threitol (DTT), 10 mM MgCl2, 1 mM ethylenediaminetetraacetic acid (EDTA) and 0.2 M NaCl (1×HEPES buffer), with or without compound at various concentrations, in a total reaction volume of 25 μl in 384 well plates. B-Raf and compound were preincubated in 1×HEPES buffer for 1 hour at 25° C. Reactions were initiated with addition of MEK1 and ATP in 1×HEPES buffer and incubated at 25° C. for 50 minutes and reactions stopped by addition of 10 μl 175 mM EDTA (final concentration 50 mM) in 1×HEPES buffer. 5 μl of the assay mix was then diluted 1:20 into 50 mM EDTA in 1×HEPES buffer, transferred to 384 well black high protein binding plates and incubated overnight at 4° C. […] Blue fluorescent product was detected at excitation 325 nm and emission 420 nm using a TECAN Ultra plate reader. Data was graphed and IC50s calculated using Excel Fit (Microsoft).

T1 sequence (P15056 whole entry): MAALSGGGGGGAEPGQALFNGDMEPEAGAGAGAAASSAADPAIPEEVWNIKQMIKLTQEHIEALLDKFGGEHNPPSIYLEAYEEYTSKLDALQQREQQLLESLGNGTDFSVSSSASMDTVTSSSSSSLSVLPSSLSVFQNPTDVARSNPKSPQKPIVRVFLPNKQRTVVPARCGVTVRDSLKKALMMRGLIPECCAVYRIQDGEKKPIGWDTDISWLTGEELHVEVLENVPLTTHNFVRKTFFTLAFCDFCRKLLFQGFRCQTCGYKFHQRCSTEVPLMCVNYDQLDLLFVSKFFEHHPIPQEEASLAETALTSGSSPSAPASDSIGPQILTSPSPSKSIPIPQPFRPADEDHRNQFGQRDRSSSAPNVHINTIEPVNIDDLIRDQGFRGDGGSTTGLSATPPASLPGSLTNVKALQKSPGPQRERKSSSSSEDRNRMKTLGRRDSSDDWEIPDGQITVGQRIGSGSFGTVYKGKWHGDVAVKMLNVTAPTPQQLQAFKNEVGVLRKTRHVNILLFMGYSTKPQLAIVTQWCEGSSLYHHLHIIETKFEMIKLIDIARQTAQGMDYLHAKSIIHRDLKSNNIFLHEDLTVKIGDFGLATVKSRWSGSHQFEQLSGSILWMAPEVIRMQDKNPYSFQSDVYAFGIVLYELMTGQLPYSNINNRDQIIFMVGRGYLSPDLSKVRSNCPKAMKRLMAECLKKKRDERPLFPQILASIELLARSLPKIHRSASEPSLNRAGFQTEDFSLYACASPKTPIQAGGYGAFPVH

In the case of `Cc1ccc(NC(=O)c2cccc(C(C)(C)C#N)c2)cc1NC(=O)c1ccc2ncn(C)c(=O)c2c1` [Example 6, N-(5-{[3-(1-Cyano-1-methylethyl)benzoyl]amino}-2-methylphenyl)-3-methyl-4-oxo-3,4-dihydroquinazoline-6-carboxamide], the IC50 is reported as 3 nM.

`Cc1ccc(NC(=O)c2cccc(C(C)(C)C#N)c2)cc1NC(=O)c1ccc2nc[nH]c(=O)c2c1` [Example 1, N-(5-{[3-(1-Cyano-1-methylethyl)benzoyl]amino}-2-methylphenyl)-4-oxo-3,4-dihydroquinazoline-6-carboxamide] showed an IC50 of 1 nM.
